Laboratory results published in patent publication US6653478B2, “Substituted benzimidazol-2-ones as vasopressin receptor antagonists and neuropeptide Y modulators” (Ortho-McNeil Pharmaceutical, Inc., priority 2000, dated 2003).
Values joined by “and” are separate entries in the source; they are usually repeats but may differ in a detail not shown here. Identical values can stand only once. Counter-ions that a name gives are not always drawn.

How the values were obtained:
NPY2 receptors = molecular target: T1, NPY2 receptors (Homo sapiens, UniProt P49146); assay: Neuropeptide Y receptor binding assay (125I-PYY, KAN-TS cell membranes); details: 10 μM compound; read-out: NPY-2@10, % Inh
T1 construct: Cell Membranes from KAN-TS cells having NPY2 receptors; endogenous in cells; host or cells: KAN-TS cells (membranes)
T1 sequence (P49146 1-381): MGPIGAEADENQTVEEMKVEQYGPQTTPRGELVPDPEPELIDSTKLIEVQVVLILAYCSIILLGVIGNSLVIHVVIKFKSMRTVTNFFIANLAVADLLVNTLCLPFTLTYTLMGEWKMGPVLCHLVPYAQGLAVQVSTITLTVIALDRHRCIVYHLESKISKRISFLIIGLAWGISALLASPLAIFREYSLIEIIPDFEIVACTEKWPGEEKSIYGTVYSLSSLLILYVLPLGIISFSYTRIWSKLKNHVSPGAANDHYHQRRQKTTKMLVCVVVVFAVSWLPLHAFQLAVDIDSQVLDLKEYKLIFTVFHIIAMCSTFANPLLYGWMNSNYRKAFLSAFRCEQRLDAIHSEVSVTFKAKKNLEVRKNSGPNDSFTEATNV
Outline: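 Membranes from KAN-TS cells competed with 125I-PYY in binding buffer containing BSA, test compound at 10 μM final, 1 hr at room temperature. Nonspecific binding defined with 1 μM PYY final. Tubes centrifuged, washed with PBS and bound radioactivity gamma-counted.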

human V1a receptor [1] = molecular target: T2, human V1a receptor (Homo sapiens, UniProt P37288); assay: V1a functional assay, intracellular calcium mobilization in transfected HEK-293 cells (FLIPR); design: expressed in transfected cells; host or cells: HEK-293; details: challenge 1 nM AVP; read-out: Cell-Based Functional activity V1a IC50
T2 sequence (P37288 whole entry): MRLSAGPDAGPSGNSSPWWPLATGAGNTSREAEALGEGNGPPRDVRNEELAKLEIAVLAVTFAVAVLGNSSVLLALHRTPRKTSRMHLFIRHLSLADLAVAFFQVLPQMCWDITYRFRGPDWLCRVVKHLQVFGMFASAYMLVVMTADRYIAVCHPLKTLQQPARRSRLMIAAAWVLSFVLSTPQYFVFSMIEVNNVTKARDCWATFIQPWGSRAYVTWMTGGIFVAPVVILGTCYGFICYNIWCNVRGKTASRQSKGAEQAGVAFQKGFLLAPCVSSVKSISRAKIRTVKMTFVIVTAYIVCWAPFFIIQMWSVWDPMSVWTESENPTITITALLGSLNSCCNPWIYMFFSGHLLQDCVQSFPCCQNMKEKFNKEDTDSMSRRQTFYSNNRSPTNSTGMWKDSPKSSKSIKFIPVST
Procedure: (§1) V1a, V1b or V2 Functional Assay
(§2) HEK-293 cells were grown in DMEM media supplemented with 10% FBS and glutamine (Gibco BRL, Grand Island, N.Y.). Once transfected the cells were passed biweekly by trypsinization and seeded into 96 well plates at 33,000 cells per well. HEK-293 were transfected with human V1a, V1b or V2 DNA using DMRIE-C reagent from Life Technologies, Inc., Grand Island, N.Y. Cells were tested for their responsiveness to vasopressin 48 hours after transfection. Stable lines were generated by selecting cells grown in culture media containing geneticin (500 μg/ml, Life Technologies).
(§3) Intracellular calcium mobilization was measured in HEK-293 cells transfected to express either human V1a, oxytocin or V1b receptors. Cells were plated into black 96-well Packard Clear-View plates 4 to 7 days prior to use. The cells were loaded with fluo-3 AM (Molecular Probes, Inc., Eugene, Oreg.) in buffer (25 mM Hepes, 125 mM NaCl, 1 gm/l glucose, 0.1% BSA, 5 mM KCl, 0.5 mM CaCl2, 0.5 mM MgCl2, pH 7.45) containing Pluronic (Molecular Probes) Cells were incubated with 5 μM fluo-3 AM for 1 hour shielded from light at room temperature. Intracellular fluorescence was measured using FLIPR (fluorometric imaging plate reader; Molecular Devices, Inc., Sunnyvale, Calif.). The FLIPR protocol called for images to be collected at one second intervals with 50 μl of the test compound added after the initial 10 images. An additional 70 images were then taken to detect any compound agonistic activity. FLIPR then added 50 μl of agonist peptide and collected a final 40 images for quantitating compound antagonistic activity. V1a- and V1b-expressing HEK cells were challenged with 1 nM and 0.5 nM AVP, respectively. Oxytocin-expressing HEK cells were challenged with 0.5 nM oxytocin (Peninsula Labs).
(§4) The data from the cAMP accumulation and the calcium mobilization assays are expressed as IC50 values as determined from dose response curves.

human V1b receptor [2] = molecular target: T3, human V1b receptor (Homo sapiens, UniProt P47901); assay: V1b functional assay, intracellular calcium mobilization in transfected HEK-293 cells (FLIPR); format: cell-based; design: expressed in transfected cells; host or cells: HEK-293; details: for IC50: challenge 0.5 nM AVP, read-out: Cell-Based Functional activity V1b IC50
T3 sequence (P47901 1-424): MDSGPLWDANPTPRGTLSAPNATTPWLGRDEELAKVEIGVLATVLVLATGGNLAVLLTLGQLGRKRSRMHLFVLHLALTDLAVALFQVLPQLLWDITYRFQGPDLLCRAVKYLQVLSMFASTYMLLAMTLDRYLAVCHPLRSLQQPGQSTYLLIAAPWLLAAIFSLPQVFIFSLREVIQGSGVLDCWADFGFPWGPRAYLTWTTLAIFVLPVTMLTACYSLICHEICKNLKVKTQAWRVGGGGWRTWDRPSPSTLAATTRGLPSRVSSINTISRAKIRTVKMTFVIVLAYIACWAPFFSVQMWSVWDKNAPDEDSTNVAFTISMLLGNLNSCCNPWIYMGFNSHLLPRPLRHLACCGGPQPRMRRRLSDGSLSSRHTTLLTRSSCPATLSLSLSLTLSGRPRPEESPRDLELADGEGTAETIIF
Procedure: as §1, §2, §3, §4

human V1a receptor [3] = molecular target: T2, human V1a receptor; assay: V1a binding assay (3H-AVP displacement, HEK-293 membranes); design: expressed in transfected cells; host or cells: HEK-293 (membranes); details: for inhibition at 1 µM: 1.0 μM compound, read-out: V1a@1.0, % Inh
Outline: (§5)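 Read-out is filter-retained 3H-AVP, counted by scintillation after washing with cold saline/0.05% Tween 20. Binding ran 1 hour at room temperature in pH 7.5 buffer with protease inhibitors; 1.25 μM unlabelled AVP gave non-specific binding.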

human V1b receptor [4] = molecular target: T3, human V1b receptor; assay: V1b binding assay (3H-AVP displacement, HEK-293 membranes); design: expressed in transfected cells; host or cells: HEK-293 (membranes); details: for inhibition at 10 µM: 10 μM compound, read-out: V1b % Inh @10; for inhibition at 1 µM: 1.0 μM compound, read-out: V1b@1.0, % Inh
Outline: as §5

human V2 receptor = human V2 receptor (Homo sapiens, UniProt P30518); assay: V2 binding assay (3H-AVP displacement, HEK-293 membranes); design: expressed in transfected cells; host or cells: HEK-293 (membranes); details: for inhibition at 1 µM: 1.0 μM compound, read-out: V2@1.0, % Inh
Sequence of human V2 receptor (P30518 whole entry): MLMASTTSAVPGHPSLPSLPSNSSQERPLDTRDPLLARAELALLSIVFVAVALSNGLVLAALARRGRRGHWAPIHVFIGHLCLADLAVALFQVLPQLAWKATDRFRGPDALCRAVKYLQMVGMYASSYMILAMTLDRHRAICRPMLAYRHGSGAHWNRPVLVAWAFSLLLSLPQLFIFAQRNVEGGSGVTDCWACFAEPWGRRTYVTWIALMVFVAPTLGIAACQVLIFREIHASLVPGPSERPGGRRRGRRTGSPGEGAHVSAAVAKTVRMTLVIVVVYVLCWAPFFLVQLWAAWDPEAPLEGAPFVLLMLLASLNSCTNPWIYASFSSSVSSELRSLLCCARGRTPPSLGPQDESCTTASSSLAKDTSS
Outline: as §5

Work on `NCCCn1c(=O)n(C2CCN(C(=O)Nc3ccccc3-c3ccccc3)CC2)c2ccccc21` [Compound 62, 1-[(N1-Piperidinocarboyl-2-biphenylylamino)-4-yl]-3-(3-aminopropyl)-1,3-dihydro-benzimidazol-2-one hydrochloride] yielded an inhibition at 10 µM (NPY2 receptors) of 50%, an IC50 (human V1a receptor [1]) of 690 nM and an inhibition at 30 µM (human V1b receptor [2]; HEK293, 30 μM compound, read-out: Cell-Based Functional activity V1b % Inh. @ 30) of 0%. It also gave an IC50 (human V1a receptor [3]) of 200 nM, an inhibition at 10 µM (human V1b receptor [4]) of 35% and an inhibition at 1 µM (human V2 receptor) of 0%.
In the case of `NCCn1c(=O)n(C2CCN(C(=S)NC(c3ccccc3)c3ccccc3)CC2)c2ccccc21` [Compound 63, 1-[(N1-Piperidinocarbothioyldiphenylmethylamino)-4-yl]-3-(2-aminoethyl)-1,3-dihydrobenzimidazol-2-one Hydrochloride], the inhibition at 10 µM (NPY2 receptors) is reported as 94%, the IC50 (human V1a receptor [1]) is reported as 310 nM and the IC50 (human V1b receptor [2]) is reported as 8060 nM. For the same compound, the IC50 (human V1a receptor [3]) was 50 nM, the IC50 (human V1b receptor [4]) was 4700 nM and the inhibition at 10 µM (human V1b receptor [4]) was 74%. The inhibition at 1 µM (human V2 receptor) was 42%.
With `NCCCCn1c(=O)n(C2CCN(C(=S)NC(c3ccccc3)c3ccccc3)CC2)c2ccccc21` [Compound 64, 1-[(N1-Piperidinocarbothioyldiphenylmethylamino)-4-yl]-3-(4-aminobutyl)-1,3-dihydro-benzimidazol-2-one] the inhibition at 10 µM (NPY2 receptors) was 93%, the IC50 (human V1a receptor [1]) was 140 nM and the IC50 (human V1b receptor [2]) was 12100 nM. The IC50 (human V1a receptor [3]) was 24 nM, the IC50 (human V1b receptor [4]) was 5400 nM and the IC50 (human V2 receptor) was 560 nM.
In the case of `NCCCCn1c(=O)n(C2CCN(C(=S)NC(c3ccccc3)c3ccc(Cl)cc3)CC2)c2ccccc21` (centres unmarked) [Compound 65, 1-[(N1-Piperidinocarbothioyl-4-chlorodiphenylmethylamino)-4-yl]-3-(4-aminobutyl)-1,3-dihydro-benzimidazol-2-one], the inhibition at 10 µM (NPY2 receptors) is reported as 51%, the IC50 (human V1a receptor [1]) is reported as 460 nM and the IC50 (human V1b receptor [2]) is reported as 21000 nM. For the same compound, the IC50 (human V1a receptor [3]) was 77 nM, the inhibition at 10 µM (human V1b receptor [4]) was 51% and the IC50 (human V2 receptor) was 500 nM.
In the case of `COc1ccccc1CNC(=S)N1CCC(n2c(=O)n(CCCN3CCCCC3)c3ccccc32)CC1` [Compound 111, 1-[(N1-piperidinocarbothioyl-2-methoxybenzylamino)-4-yl]-3-(3-N-piperidinylpropyl)-1,3-dihydrobenzimidazol-2-one], the inhibition at 10 µM (NPY2 receptors) is reported as 31%, the IC50 (human V1a receptor [3]) is reported as 109 nM and 56 nM and the inhibition at 1 µM (human V1b receptor [4]) is reported as 30%. It also gave an inhibition at 1 µM (human V2 receptor) of 0%.
`O=c1n(CCCN2CCCCC2)c2ccccc2n1C1CCN(C(=S)NCc2cccc3ccccc23)CC1` [Compound 112, 1-[(N1-piperidinocarbothioyl-1-naphthalmethylamino)-4-yl]-3-(3-N-piperidinylpropyl)-1,3-dihydrobenzimidazol-2-one] gave an inhibition at 10 µM (NPY2 receptors) of 55%, an IC50 (human V1a receptor [3]) of 139 nM and an inhibition at 1 µM (human V1b receptor [4]) of 32%. For the same compound, the inhibition at 1 µM (human V2 receptor) was 0%.
Compound `CC1CCN(CCCn2c(=O)n(C3CCN(C(=S)NC(c4ccccc4)c4ccccc4)CC3)c3ccccc32)CC1` [Compound 113, 1-[(N1-piperidinocarbothioylbiphenylmethylamino)-4-yl]-3-(4-methylpiperidin-1-yl-propyl)-1,3-dihydrobenzimidazol-2-one] has an inhibition at 10 µM (NPY2 receptors) of 89%, an IC50 (human V1a receptor [3]) of 23 nM and an inhibition at 1 µM (human V1a receptor [3]) of 70%. It also gave an inhibition at 1 µM (human V1b receptor [4]) of 47% and an inhibition at 1 µM (human V2 receptor) of 7%.
`O=C(Nc1ccccc1F)N1CCC(n2c(=O)n(CCCN3CCCCC3)c3ccccc32)CC1` [Compound 114, 1-[(N1-piperidinocarbonyl-2-fluorophenylamino)-4-yl]-3-(3-N-piperidinylpropyl)-1,3-dihydrobenzimidazol-2-one] showed an inhibition at 10 µM (NPY2 receptors) of 17%, an inhibition at 1 µM (human V1a receptor [3]) of 1% and an inhibition at 1 µM (human V1b receptor [4]) of 4%. For the same compound, the inhibition at 1 µM (human V2 receptor) was 2%.
For `O=c1n(CCCN2CCCCC2)c2ccccc2n1C1CCN(C(=S)Nc2ccccc2F)CC1` [Compound 115, 1-[(N1-piperidinocarbonthioyl-2-fluorophenylamino)-4-yl]-3-(3-N-piperidinylpropyl)-1,3-dihydrobenzimidazol-2-one], the inhibition at 10 µM (NPY2 receptors) was 26%, the inhibition at 1 µM (human V1a receptor [3]) was 13% and the inhibition at 1 µM (human V1b receptor [4]) was 20%. For the same compound, the inhibition at 1 µM (human V2 receptor) was 11%.
`C[C@H](NC(=S)N1CCC(n2c(=O)n(CCCN3CCCCC3)c3ccccc32)CC1)c1ccccc1` [Compound 116, 1-[(N1-piperidinocarbonthioyl-R-(−)-alpha-methylbenzylamino)-4-yl]-3-(3-N-piperidinylpropyl)-1,3-dihydrobenzimidazol-2-one] was tested, and the inhibition at 10 µM (NPY2 receptors) was 25%, the inhibition at 1 µM (human V1a receptor [3]) was 85% and the inhibition at 1 µM (human V1b receptor [4]) was 47%. The inhibition at 1 µM (human V2 receptor) was 18%.
In the case of `CCCc1ccccc1NC(=O)N1CCC(n2c(=O)n(CCCN3CCCCC3)c3ccccc32)CC1` [Compound 117, 1-[(N1-piperidinocarbonyl-2-propylphenylamino)-4-yl]-3-(3-N-piperidinylpropyl)-1,3-dihydrobenzimidazol-2-one], the inhibition at 10 µM (NPY2 receptors) is reported as 1%, the IC50 (human V1a receptor [3]) is reported as 331 nM and the inhibition at 1 µM (human V1a receptor [3]) is reported as 68%. It also gave an inhibition at 1 µM (human V1b receptor [4]) of 43% and an inhibition at 1 µM (human V2 receptor) of 15%.
In the case of `O=c1n(CCCN2CCCCC2)c2ccccc2n1C1CCN(C(=S)NCC(c2ccccc2)c2ccccc2)CC1` [Compound 118, 1-[(N1-piperidinocarbothioyl-2,2-diphenylethylamino)-4-yl]-3-(3-N-piperidinylpropyl)-1,3-dihydrobenzimidazol-2-one], the inhibition at 10 µM (NPY2 receptors) is reported as 52%, the inhibition at 1 µM (human V1a receptor [3]) is reported as 94% and the inhibition at 1 µM (human V1b receptor [4]) is reported as 55%. It also gave an inhibition at 1 µM (human V2 receptor) of 21%.
Work on `COc1ccccc1NC(=S)N1CCC(n2c(=O)n(CCCN3CCCCC3)c3ccccc32)CC1` [Compound 119, 1-[(N1-piperidinocarbothioyl-2-methoxyphenylamino)-4-yl]-3-(3-N-piperidinylpropyl)-1,3-dihydrobenzimidazol-2-one] yielded an inhibition at 10 µM (NPY2 receptors) of 13%, an IC50 (human V1a receptor [3]) of 61 nM and an inhibition at 1 µM (human V1a receptor [3]) of 48%. It also gave an inhibition at 1 µM (human V1b receptor [4]) of 29% and an inhibition at 1 µM (human V2 receptor) of 19%.
In the case of `O=C(NC(c1ccccc1)(c1ccccc1)c1ccccc1)N1CCC(n2c(=O)n(CCCN3CCCCC3)c3ccccc32)CC1` [Compound 120, 1-[(N1-piperidinocarbonyltriphenylmethylamino)-4-yl]-3-(3-N-piperidinylpropyl)-1,3-dihydrobenzimidazol-2-one], the inhibition at 10 µM (NPY2 receptors) is reported as 100%, the inhibition at 1 µM (human V1a receptor [3]) is reported as 20% and the inhibition at 1 µM (human V1b receptor [4]) is reported as 25%. For the same compound, the inhibition at 1 µM (human V2 receptor) was 20%.
